Patent US9580400B2, “Cannabinergic nitrate esters and related analogs” (Northeastern University, priority 2013, dated 2017)

Tests used:
human GPR55 receptor = target: T1, human GPR55 receptor (Homo sapiens, UniProt Q9Y2T6); assay: β-arrestin2 translocation assay, GPR55, U2OS cells; type: cell-based
T1 construct: human GPR55 receptor modified with human vasopressin V2 receptor tail [GPR55(E)]; fused on or other part: C-terminal tail of the human vasopressin V2 receptor (AVPR2), added to strengthen beta-arrestin recruitment; HA tag; Beta-arrestin 2-GFP is co-expressed as the read-out
T1 sequence (Q9Y2T6 1-292 limits assumed): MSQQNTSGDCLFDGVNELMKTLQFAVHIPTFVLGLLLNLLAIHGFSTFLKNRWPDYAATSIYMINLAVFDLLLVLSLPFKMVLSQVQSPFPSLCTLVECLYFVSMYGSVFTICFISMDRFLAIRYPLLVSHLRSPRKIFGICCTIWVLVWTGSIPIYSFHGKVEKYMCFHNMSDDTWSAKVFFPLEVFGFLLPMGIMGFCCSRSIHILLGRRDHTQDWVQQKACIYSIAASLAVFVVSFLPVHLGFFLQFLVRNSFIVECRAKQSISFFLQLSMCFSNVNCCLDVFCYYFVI
Description: Test compounds were screened in U2OS cells permanently expressing β-arrestin 2-GFP and human GPR55 receptor modified with human vasopressin V2 receptor tail [GPR55(E)].
β-arrestin2 translocation: For both agonist and antagonist assays, the U2OS cells permanently transfected with β-arrestin 2-GFP and human GPR55(E) were used to trace β-arrestin translocation upon compound treatment. U2OS cells permanently expressing HA-GPR55E and βarr2-GFP were plated into 96 or 384 glass bottomed well plates in clear MEM. For the antagonist assay, compounds in DMSO (final concentration <1%) were added to cells 15 min prior to LPI (agonist) addition and the plates were placed in a 5% 37 degree CO2 incubator (LPI was used at 6 μM). For agonist evaluation only the compound of interest is placed on the wells. Following 40 minute incubation, the cells are fixed by adding paraformaldehyde to 4%. Image acquisition is performed using the Cellomics Arrayscan VTI High Content (HC) cell based imaging system and a ×40 lens. Image analysis is done by using the Batchmode computer software evaluating wavelet information which reflects the number and intensity of fluorescent aggregation (procedures performed at Duke University and adopted from http://www.ncbi.nlm.nih.gov/books/NBK66153/and J. Biol. Chem. 2009; 284(43):29817-27 herein incorporated by reference in its entirety). FIG. 15 describes the biochemical assay for compound 78 wherein the β-arrestin assessment of GPR55 activation is shown.

hCB2 = target: T2, hCB2 (Homo sapiens, UniProt P34972); assay: hCB2 competition-equilibrium binding using [3H]CP-55,940, HEK293 cell membranes; conditions: HEK293 cell membranes expressing hCB2; Ki calculated from IC50; read-out: hCB2 affinity data
T2 construct: expressed in transfected cells; host or cells: HEK293
T2 sequence (P34972 whole entry): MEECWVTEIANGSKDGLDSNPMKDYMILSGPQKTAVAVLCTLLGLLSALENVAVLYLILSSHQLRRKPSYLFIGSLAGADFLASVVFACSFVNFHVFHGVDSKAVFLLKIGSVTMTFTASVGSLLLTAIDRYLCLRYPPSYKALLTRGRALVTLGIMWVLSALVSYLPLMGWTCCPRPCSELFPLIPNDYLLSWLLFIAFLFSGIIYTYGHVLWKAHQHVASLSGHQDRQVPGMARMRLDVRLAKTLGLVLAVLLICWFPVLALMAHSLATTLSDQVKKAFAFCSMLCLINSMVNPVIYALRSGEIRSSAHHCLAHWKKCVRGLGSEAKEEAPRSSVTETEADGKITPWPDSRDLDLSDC
Description: HEK293 cells expressing hCB1, hCB2 or mCB2 receptor are used for membrane preparations according to the method described in J Neurochem 1999, 72, (5), 2032-8, herein incorporated by reference in its entirety. The resulting pellet is resuspended in 10 mM Tris-chloride, pH 7.4 with 5 mM MgCl2 and 2 mM EDTA (TME), and stored at −80° C. for no longer than two months. Protein content is assayed by using the Bio-Rad DC protein assay according to the manufacturer's protocol.
(§1) The compounds are tested for their ability to bind to CB1 and CB2 receptors using rat brain or HEK293 cell membranes expressing hCB2 and mCB2 membrane preparations, respectively, as described in J Med Chem 1999, 42, (4), 769-776, J Med Chem 1994, 37, (23), 3867-70 and Life Sci 1995, 56, (23-24), 1957-62 (each herein incorporated by reference in its entirety) via competition-equilibrium binding using [^3H]CP-55,940. The results are analyzed using nonlinear regression to determine the actual IC50 of the ligand (Prizm by GraphPad Software, Inc.) and the Ki values are calculated from the IC50 as described in Biochemical Pharmacology 1973, 22, (23), 3099-3108; herein incorporated by reference in its entirety.

rCB1 = target: T3, rCB1 (Rattus norvegicus, UniProt P20272); assay: rCB1 competition-equilibrium binding using [3H]CP-55,940, rat brain membranes; conditions: Ki calculated from IC50, read-out: rCB1 affinity data
T3 construct: tissue Pel-Freeze Biologicals; host or cells: rat brain membranes
T3 sequence (P20272 whole entry): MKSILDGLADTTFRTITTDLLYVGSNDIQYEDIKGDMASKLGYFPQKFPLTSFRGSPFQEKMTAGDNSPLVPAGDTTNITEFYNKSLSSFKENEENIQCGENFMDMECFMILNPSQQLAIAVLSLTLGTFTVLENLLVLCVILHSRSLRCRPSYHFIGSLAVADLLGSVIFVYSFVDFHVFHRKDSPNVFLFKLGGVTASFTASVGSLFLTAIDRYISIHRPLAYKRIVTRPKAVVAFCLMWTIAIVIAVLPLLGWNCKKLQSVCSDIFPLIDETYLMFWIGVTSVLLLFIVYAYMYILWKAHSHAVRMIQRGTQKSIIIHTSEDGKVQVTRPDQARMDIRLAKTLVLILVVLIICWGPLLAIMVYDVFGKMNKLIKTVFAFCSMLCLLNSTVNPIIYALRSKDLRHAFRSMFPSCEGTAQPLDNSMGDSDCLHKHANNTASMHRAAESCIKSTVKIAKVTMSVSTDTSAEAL
Description: Frozen rat brains (CB1 source) are obtained from Pel-Freeze Biologicals (Rogers, A K) and stored at −80° C. until use. Membranes are prepared according to the method described in Brain Res 1981, 226, (1-2), 107-18 and adapted as previously reported in J Med Chem 1994, 37, (23), 3867-70 and Life Sci 1995, 56, (23-24), 1957-62; each herein incorporated by reference in its entirety.
as §1

[1] = antagonist assay, compound added 15 min prior to LPI (6 μM), U2OS cells with β-arrestin 2-GFP and GPR55(E)

Compound | GPR55 EC50 (human GPR55 receptor; [1]) | Ki (hCB2) [nM] | Ki (rCB1) [nM] | other results
C=C(C)[C@@H]1CCC(C)=C[C@H]1c1c(O)cc(O)cc1CCCCC [abn-cannabidiol, abnormal cannabidiol] | none | – | – | –
C=C(C)[C@@H]1CCC(C)=C[C@H]1c1c(O)cc(CCCCC)cc1O [cannabidiol] | none | – | – | –
CC1=CC[C@@H]2[C@@H](C1)c1c(O)cc(C(C)(C)CCCCO[N+](=O)[O-])cc1OC2(C)C [compound 1, 5-((6aR,1aR)-1-hydroxy-6,6,9-trimethyl-6a,7,10,10a-tetrahydro-6H-benzo[c]chromen-3-yl)-5-methylhexyl nitrate] | – | 1 | 0.1 | –
C=C(C)[C@@H]1CCC(C)=C[C@H]1c1c(O)cc(C(C)(C)CCCCO[N+](=O)[O-])cc1O [compound 78, 5-((1′R,2′R)-2,6-dihydroxy-5′-methyl-2′-(prop-1-en-2-yl)-1′,2′,3′,4′-tetrahydro-[1,1′-biphenyl]-4-yl)-5-methylhexyl nitrate] | – | 35 | 60 | EC50 (human GPR55 receptor; [1]): 2000 to 4000 nM
CCCCCc1cc(O)c2c(c1)OC(C)(C)[C@@H]1CCC(C)=C[C@@H]21 [Δ^9-THC, Δ^9-tetrahydrocannabinol] | none | – | – | –
L-α-lysophosphatidylinositol [LPI] | – | – | – | EC50 (human GPR55 receptor; LPI (agonist) line of the antagonist assay table): 6000 nM
